For 29 compounds, IC50 results are on record in US9346794B1, “Substituted 4-pyridones and their use as inhibitors of neutrophil elastase activity” (Boehringer Ingelheim International GmbH, priority 2012, dated 2016).

Human neutrophil elastase, sequence (P08246 30-247): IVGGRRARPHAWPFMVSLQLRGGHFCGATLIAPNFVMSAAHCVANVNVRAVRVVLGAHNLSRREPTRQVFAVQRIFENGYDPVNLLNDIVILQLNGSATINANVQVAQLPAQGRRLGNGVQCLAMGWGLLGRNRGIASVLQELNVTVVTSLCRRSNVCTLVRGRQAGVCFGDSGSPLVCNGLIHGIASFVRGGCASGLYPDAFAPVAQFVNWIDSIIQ

In the experiment the target is Human neutrophil elastase (Homo sapiens (Human), UniProt P08246). The experiment is described as follows: Human Neutrophil Elastase Assay. The class given is biochemical. The conditions noted are these: substrate MeOSuc-Ala-Ala-Pro-Val-AMC 250 μM, fluorescence, pH 7.5. The protocol:
Human Neutrophil Elastase Assay
All other materials were of the highest grade commercially available.
The following buffers were used: Compound buffer: 100 mM Tris, 500 mM NaCl, adjusted to pH 7.5; Assay buffer: 100 mM Tris, 500 mM NaCl, adjusted to pH 7.5, containing 0.01% BSA.
Assay conditions: Test compounds were prediluted in DMSO and subsequently in compound buffer (5% DMSO final). […] After inactivation of the enzyme, fluorescence intensities were measured at 380 nm excitation and 460 nm emission wavelengths.
Each plate contains wells with a high value control (DMSO+enzyme+substrate) and wells with a low value control (DMSO+inactivated enzyme+substrate). IC50 values were estimated using a sigmoidal concentration response curve with variable slope. Means of low values were taken as 0%, means of high values as 100%. IC50 values of selected compound in the Neutrophil Elastase assay: […]
Compound `Cc1c(-c2cccc(C(F)F)c2)c(=O)c(C(=O)NCc2ccc(S(C)(=O)=NC#N)c(F)c2)cn1C(C)C` (centres unmarked) [Example 32] registered an IC50 of 1.1 nM. On to `Cc1c(-c2cccc(C(F)(F)F)c2)c(=O)c(C(=O)NCc2ccc(S(C)(=O)=NC#N)cc2)cn1Cc1ccc(C#N)cc1` (centres unmarked) [Example 9, 1-(4-Cyano-benzyl)-6-methyl-4-oxo-5-(3-trifluoromethyl-phenyl)-1,4-dihydro-pyridine-3-carboxylic acid 4-(N-cyano-S-methylsulfonimidoyl)-benzylamide], for which the IC50 was under 1 nM. As to `Cc1c(-c2cccc(C(F)F)c2)c(=O)c(C(=O)NCc2ccc(S(C)(=O)=NC#N)cc2)cn1-c1ccnn1C` (centres unmarked) [Example 7, 5-(3-Difluoromethyl-phenyl)-6-methyl-1-(2-methyl-2H-pyrazol-3-yl)-4-oxo-1,4-dihydro-pyridine-3-carboxylic acid 4-(N-cyano-S-methylsulfonimidoyl)-benzylamide], the half-inhibitory concentration (IC50) is 2.1 nM. Turning to `Cc1c(-c2cccc(C(F)(F)F)c2)c(=O)c(C(=O)NCc2ccc(S(C)(=O)=NC#N)cc2)cn1C1CC1` (single isomer, unassigned) [Example 20], it took 5.6 nM to reach half-maximal inhibition (IC50). `Cc1c(-c2cccc(C(F)F)c2)c(=O)c(C(=O)NCc2ccc(S(C)(=O)=NC#N)cc2)cn1-c1cccnc1` (single isomer, unassigned) [Example 39]: 3.7 nM corresponded to half-maximal inhibition (IC50). `Cc1ccncc1-n1cc(C(=O)NCc2ccc(S(C)(=O)=NC#N)cc2)c(=O)c(-c2cccc(C(F)(F)F)c2)c1C` (centres unmarked) [Example 57] came in with a 50% inhibitory concentration (IC50) of 1.7 nM. Compound `Cc1c(-c2cccc(C(F)F)c2)c(=O)c(C(=O)NCc2ccc(S(C)(=O)=NC#N)cc2)cn1-c1ccncc1` (single isomer, unassigned) [Example 40] came in with an IC50 of 4 nM.

`Cc1c(-c2ccnc(C(F)(F)F)c2)c(=O)c(C(=O)NCc2ccc(S(C)(=O)=NC#N)cc2)cn1-c1ccncc1` (single isomer, unassigned) [Example 46] registered an IC50 of 11.7 nM. Against the preceding compound, the IC50 is about 2.9-fold higher.

As for `Cc1c(-c2cccc(C(F)(F)F)c2)c(=O)c(C(=O)NCc2ccc(S(C)(=O)=NC#N)cc2)cn1-c1ccccn1` (single isomer, unassigned) [Example 25], the IC50 turned out to be 4.3 nM. With `CCS(=O)(=NC#N)c1ccc(CNC(=O)c2cn(C3CC3)c(C)c(-c3cccc(C(F)(F)F)c3)c2=O)cc1` (single isomer, unassigned) [Example 21B] the figure was 2.1 nM; with `Cc1c(-c2ccnc(C(F)(F)F)c2)c(=O)c(C(=O)NCc2ccc(S(C)(=O)=NC#N)cc2)cn1-c1ccccn1` (single isomer, unassigned) [Example 44], 14.9 nM. In the case of `Cc1c(-c2cccc(C(F)F)c2)c(=O)c(C(=O)NCc2ccc(S(C)(=O)=NS(C)(=O)=O)cc2)cn1C(C)C` (centres unmarked) [Example 35], the midpoint of inhibition, the IC50, lay at 8 nM. For the compound `Cc1c(-c2ccnc(C(F)(F)F)c2)c(=O)c(C(=O)NCc2ccc(S(C)(=O)=NC#N)cc2)cn1C(C)C` (single isomer, unassigned) [Example 3B, 1-Isopropyl-2-methyl-4-oxo-2′-trifluoromethyl-1,4-dihydro-[3,4′]-bipyridinyl-5-carboxylic acid 4-(N-cyano-S-methylsulfonimidoyl)-benzylamide], the half-maximal inhibitory concentration (IC50) stood at 5.1 nM. `Cc1c(-c2cccc(C(F)(F)F)c2)c(=O)c(C(=O)NCc2ccc(S(=O)(=NC#N)C(C)C)cc2)cn1-c1ccnn1C` (centres unmarked) [Example 19] gave a half-maximal inhibitory concentration (IC50) of 1 nM. In the case of `Cc1ccc(-n2cc(C(=O)NCc3ccc(S(C)(=O)=NC#N)cc3)c(=O)c(-c3cccc(C(F)(F)F)c3)c2C)cn1` (centres unmarked) [Example 58] it was 4.7 nM; in that of `Cc1c(-c2cccc(C(F)F)c2)c(=O)c(C(=O)NCc2ccc(S(C)(=O)=NC#N)cc2)cn1C(C)C` (centres unmarked) [Example 1B, 5-(3-Difluoromethyl-phenyl)-1-isopropyl-6-methyl-4-oxo-1,4-dihydro-pyridine-3-carboxylic acid 4-(N-cyano-S-methylsulfonimidoyl)-benzylamide], 1.3 nM.

The compound `CN=S(=O)(c1ccc(CNC(=O)c2cn(C(C)C)c(C)c(-c3cccc(C(F)(F)F)c3)c2=O)cc1)N(C)C` (centres unmarked) [Example 60, 5-(3-Trifluoromethyl-phenyl)-1-isopropyl-6-methyl-4-oxo-1,4-dihydro-pyridine-3-carboxylic acid 4-(N,N,N′-trimethylsulfamimidoyl)-benzylamide] gave a half-inhibitory concentration (IC50) of 22 nM. Compared with the last compound, the IC50 is about 17-fold higher. As for `Cc1c(-c2cccc(C(F)(F)F)c2)c(=O)c(C(=O)NCc2ccc(S(C)(=O)=NC#N)cc2F)cn1C(C)C` (centres unmarked) [Example 14], the IC50 was 1.5 nM.

For `CCn1cc(C(=O)NCc2ccc(S(=O)(CC)=NC#N)cc2)c(=O)c(-c2cccc(C(F)(F)F)c2)c1C` (single isomer, unassigned) [Example 10A], the IC50 was 2.7 nM. Compared with the last compound, the IC50 is about 1.8-fold higher. `Cc1c(-c2ccnc(C(F)(F)F)c2)c(=O)c(C(=O)NCc2ccc(S(C)(=O)=NC#N)cc2)cn1-c1ccccc1` (single isomer, unassigned) [Example 43] displayed an IC50 of 13.4 nM. In the case of `Cc1c(-c2cccc(C(F)(F)F)c2)c(=O)c(C(=O)NCc2ccc(S(=O)(=NC#N)C(C)C)cc2)cn1C1CC1` (single isomer, unassigned) [Example 22A] it was 4.5 nM; in that of `Cc1c(-c2cccc(C(F)(F)F)c2)c(=O)c(C(=O)NCc2ccc(S(C)(=O)=NS(C)(=O)=O)cc2)cn1C(C)C` (centres unmarked) [Example 17], 7.3 nM.

`Cc1c(-c2cccc(C(F)(F)F)c2)c(=O)c(C(=O)NCc2ccc(S(C)(=O)=NC#N)cc2)cn1-c1cccnc1` (single isomer, unassigned) [Example 26] yielded an IC50 of 3.3 nM. This IC50 is about 2.2-fold lower than that of the compound before.

Compound `Cc1c(-c2ccnc(C(F)(F)F)c2)c(=O)c(C(=O)NCc2ccc(S(C)(=O)=NC#N)cc2)cn1C(C)C` (racemic) [Example 3, 1-Isopropyl-2-methyl-4-oxo-2′-trifluoromethyl-1,4-dihydro-[3,4′]-bipyridinyl-5-carboxylic acid 4-(N-cyano-S-methylsulfonimidoyl)-benzylamide] had an IC50 of 4.7 nM.

The compound `Cc1c(-c2cccc(C(F)F)c2)c(=O)c(C(=O)NCc2ccc(S(C)(=O)=NC#N)cc2F)cn1C(C)C` (centres unmarked) [Example 33] gave a concentration for half-maximal inhibition (IC50) of 2.5 nM. In the case of `CCS(=O)(=NC#N)c1ccc(CNC(=O)c2cn(-c3ccnn3C)c(C)c(-c3cccc(C(F)(F)F)c3)c2=O)cc1` (centres unmarked) [Example 18] it was 1.5 nM.

In turn, `Cc1c(-c2cccc(C(F)F)c2)c(=O)c(C(=O)NCc2ccc(S(C)(=O)=NC#N)cc2)cn1C(C)C` (centres unmarked) [Example 1, 5-(3-Difluoromethyl-phenyl)-1-isopropyl-6-methyl-4-oxo-1,4-dihydro-pyridine-3-carboxylic acid 4-(N-cyano-S-methylsulfonimidoyl)-benzylamide] registered an IC50 of 1.3 nM. `Cc1c(-c2cccc(C(F)(F)F)c2)c(=O)c(C(=O)NCc2ccc(S(C)(=O)=NC#N)cc2)cn1C1CCCOC1` (centres unmarked) [Example 55] had a half-maximal inhibitory concentration (IC50) of 1.8 nM.

In turn, `Cc1c(-c2cccc(C(F)F)c2)c(=O)c(C(=O)NCc2ccc(S(C)(=O)=NC#N)cc2)cn1C(C)C` (single isomer, unassigned) [Example 1A, 5-(3-Difluoromethyl-phenyl)-1-isopropyl-6-methyl-4-oxo-1,4-dihydro-pyridine-3-carboxylic acid 4-(N-cyano-S-methylsulfonimidoyl)-benzylamide] came in with a half-inhibitory concentration (IC50) of 3.1 nM.

A word on the IC50: it is the point on the concentration scale where inhibition reaches its midpoint. Lower therefore signals higher potency.
